# According to ChEMBL document CHEMBL1201862, “PubChem BioAssay data set” (2004):
# Values joined by “and” are separate entries in the source; they are usually repeats but may differ in a detail not shown here. Equal values may be shown once. Active and inactive are the calls of the source.
# How the values were obtained:
# [1] = biological target: T1, Heat shock factor protein 1 (Mus musculus, UniProt P38532); experiment: enhancement of HSF1-driven luciferase signal – cell-based, NIH3T3, luminescence, dose retest, confirmation (AID 435004); type: functional;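 also: stress induced by proteasome inhibitor MG132 added 30 min after compound; luciferase reporter driven by HSF1 response element in NIH3T3 cells; actives raise luminescence as potentiators of the MG132 stress response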
# T1 sequence (P38532 whole entry): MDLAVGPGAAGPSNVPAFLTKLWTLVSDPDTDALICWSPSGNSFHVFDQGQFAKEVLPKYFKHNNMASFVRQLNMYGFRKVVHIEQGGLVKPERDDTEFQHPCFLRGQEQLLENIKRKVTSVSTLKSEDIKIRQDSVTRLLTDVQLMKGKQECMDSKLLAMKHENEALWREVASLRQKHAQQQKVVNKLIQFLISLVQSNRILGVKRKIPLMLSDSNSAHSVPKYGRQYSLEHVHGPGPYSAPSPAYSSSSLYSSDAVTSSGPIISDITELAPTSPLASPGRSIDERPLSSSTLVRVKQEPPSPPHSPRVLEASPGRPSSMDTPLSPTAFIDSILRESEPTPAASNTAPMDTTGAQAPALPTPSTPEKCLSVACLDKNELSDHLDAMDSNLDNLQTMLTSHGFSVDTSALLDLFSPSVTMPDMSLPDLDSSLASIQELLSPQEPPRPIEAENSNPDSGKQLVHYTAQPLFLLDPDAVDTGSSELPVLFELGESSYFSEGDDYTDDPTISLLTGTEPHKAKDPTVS
# Streptococcus = experiment: GAS UMAA2166 growth inhibition – luminescence, BacTiterGlo, counter-screen for streptokinase expression inhibitor project, dose response (AID 1915); type: functional, organism-based;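 also: potency for reduction of bacterial viability or growth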
# [2] = tested on: Streptococcus sp. 'group A'; experiment: Streptococcus pyogenes SK(-)GAS viability under kanamycin – luminescence, BacTiterGlo, confirmation, counter-screen for streptokinase expression inhibitor project, dose response (AID 1900); type: functional, organism-based
# Streptokinase A = biological target: T2, Streptokinase A (Streptococcus pyogenes serotype M1, UniProt P10520); experiment: viability-normalized secreted streptokinase activity reduction – plasminogen activation absorbance, OD405, dose response (AID 1914); type: functional, Streptococcus pyogenes M1 GAS;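 also: secreted streptokinase activity via plasminogen activation per viability signal from cell pellet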
# T2 sequence (P10520 whole entry): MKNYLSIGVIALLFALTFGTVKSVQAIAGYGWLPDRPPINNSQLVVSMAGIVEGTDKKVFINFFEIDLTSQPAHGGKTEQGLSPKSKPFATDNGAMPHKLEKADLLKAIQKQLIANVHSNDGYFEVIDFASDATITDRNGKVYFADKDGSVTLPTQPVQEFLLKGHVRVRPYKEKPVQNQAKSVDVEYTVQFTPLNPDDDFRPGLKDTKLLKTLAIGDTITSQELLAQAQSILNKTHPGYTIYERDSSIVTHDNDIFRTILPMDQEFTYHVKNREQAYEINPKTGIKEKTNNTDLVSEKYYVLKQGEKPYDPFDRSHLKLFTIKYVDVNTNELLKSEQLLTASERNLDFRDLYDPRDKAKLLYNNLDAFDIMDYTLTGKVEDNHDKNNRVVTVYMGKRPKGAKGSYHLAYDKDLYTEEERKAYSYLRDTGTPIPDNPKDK
# INS1 = experiment: INS-1E survival protection against cytokine death – cell-based, luminescence, retest, dose response (AID 449756); type: functional; conditions: Rattus norvegicus;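 also: cell death triggered by IL-1 beta plus TNF-alpha plus IFN-gamma mixture; protective hits raise ATP signal compared with cytokine alone wells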
# [3] = NIH3T3 cell viability loss – ATP luminescence, mouse fibroblasts, counter-screen, dose response (AID 2010); type: functional, cell-based;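 also: cells exposed to compound for about 90 hours before reading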
# [4] = Trypanosoma cruzi growth suppression in host cells – NIH3T3 host cells, beta-gal luminescence, confirmation (AID 2044); type: functional, cell-based;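 also: intracellular parasites grown in NIH/3T3 mouse fibroblasts as host cells; luminescent beta-galactosidase reporter signal from transgenic T. cruzi replicating inside host cells; inhibitors lower the luminescence signal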
# Cytochrome P450 1A2 = biological target: T3, Cytochrome P450 1A2 (Homo sapiens, UniProt P05177);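 also: PubChem cytochrome P450 panel assay, CYP1A2 panel member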
# T3 sequence (P05177 whole entry): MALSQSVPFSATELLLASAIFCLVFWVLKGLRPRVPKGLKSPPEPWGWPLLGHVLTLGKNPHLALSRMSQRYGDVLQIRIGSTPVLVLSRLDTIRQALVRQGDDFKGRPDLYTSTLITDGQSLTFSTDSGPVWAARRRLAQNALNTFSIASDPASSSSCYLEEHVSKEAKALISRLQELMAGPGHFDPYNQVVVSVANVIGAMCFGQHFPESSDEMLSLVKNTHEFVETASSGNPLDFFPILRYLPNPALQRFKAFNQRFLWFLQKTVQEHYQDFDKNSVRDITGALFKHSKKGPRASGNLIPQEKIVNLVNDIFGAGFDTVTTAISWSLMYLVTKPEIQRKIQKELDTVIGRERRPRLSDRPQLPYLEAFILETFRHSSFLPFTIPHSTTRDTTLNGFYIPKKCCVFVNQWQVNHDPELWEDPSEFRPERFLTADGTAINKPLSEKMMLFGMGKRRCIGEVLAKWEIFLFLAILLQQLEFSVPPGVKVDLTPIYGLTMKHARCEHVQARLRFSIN
# Cytochrome P450 2D6 = Cytochrome P450 2D6 (Homo sapiens, UniProt P10635);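 also: CYP2D6 member of a cytochrome P450 panel assay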
# Cytochrome P450 2C19 = Cytochrome P450 2C19 (Homo sapiens, UniProt P33261); experiment: Cytochrome panel assay with activity outcomes. Panel member name: p450-cyp2c19 Compounds with AC50 equal or less than 10 uM are considered active; type: functional; conditions: read-out: AC50
# Cytochrome P450 3A4 = Cytochrome P450 3A4 (Homo sapiens, UniProt P08684);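 also: CYP3A4 tested as one member of a cytochrome P450 panel screen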
# [5] = Luminescence Cell-Based Dose Retest to Confirm Inhibitors of Cancer Stem Cells. [Related pubchem assays (depositor defined):AID2717, AID2721]; type: functional; conditions: Homo sapiens
# Chain of Cytochrome P450 2D6 (P10635 whole entry): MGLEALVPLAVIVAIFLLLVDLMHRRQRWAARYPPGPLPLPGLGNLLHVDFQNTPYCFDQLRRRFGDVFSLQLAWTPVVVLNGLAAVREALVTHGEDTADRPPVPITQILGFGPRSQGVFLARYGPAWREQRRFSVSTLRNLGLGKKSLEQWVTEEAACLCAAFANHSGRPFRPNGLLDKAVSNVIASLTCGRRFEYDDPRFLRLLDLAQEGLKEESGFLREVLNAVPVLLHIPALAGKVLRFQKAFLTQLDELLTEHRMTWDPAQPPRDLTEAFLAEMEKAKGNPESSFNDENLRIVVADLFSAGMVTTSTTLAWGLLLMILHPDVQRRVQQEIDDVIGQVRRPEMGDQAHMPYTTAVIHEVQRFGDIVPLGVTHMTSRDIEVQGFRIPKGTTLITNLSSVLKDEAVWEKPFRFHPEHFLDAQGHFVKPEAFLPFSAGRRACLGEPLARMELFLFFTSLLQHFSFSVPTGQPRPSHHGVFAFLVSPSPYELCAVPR
# Chain of Cytochrome P450 3A4 (P08684 whole entry): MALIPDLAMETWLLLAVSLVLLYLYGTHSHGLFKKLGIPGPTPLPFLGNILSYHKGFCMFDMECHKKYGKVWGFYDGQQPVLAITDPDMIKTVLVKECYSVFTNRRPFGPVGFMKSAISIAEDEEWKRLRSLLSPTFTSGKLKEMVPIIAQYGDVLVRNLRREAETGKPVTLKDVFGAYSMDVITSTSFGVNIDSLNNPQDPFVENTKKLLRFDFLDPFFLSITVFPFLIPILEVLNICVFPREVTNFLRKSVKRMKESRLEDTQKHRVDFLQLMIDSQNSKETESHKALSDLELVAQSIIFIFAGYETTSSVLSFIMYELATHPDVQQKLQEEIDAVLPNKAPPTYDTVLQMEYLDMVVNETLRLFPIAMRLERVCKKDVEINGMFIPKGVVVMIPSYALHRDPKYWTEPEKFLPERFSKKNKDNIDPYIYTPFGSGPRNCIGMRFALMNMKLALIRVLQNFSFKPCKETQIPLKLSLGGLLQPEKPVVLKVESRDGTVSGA
# Chain of Cytochrome P450 2C19 (P33261 whole entry): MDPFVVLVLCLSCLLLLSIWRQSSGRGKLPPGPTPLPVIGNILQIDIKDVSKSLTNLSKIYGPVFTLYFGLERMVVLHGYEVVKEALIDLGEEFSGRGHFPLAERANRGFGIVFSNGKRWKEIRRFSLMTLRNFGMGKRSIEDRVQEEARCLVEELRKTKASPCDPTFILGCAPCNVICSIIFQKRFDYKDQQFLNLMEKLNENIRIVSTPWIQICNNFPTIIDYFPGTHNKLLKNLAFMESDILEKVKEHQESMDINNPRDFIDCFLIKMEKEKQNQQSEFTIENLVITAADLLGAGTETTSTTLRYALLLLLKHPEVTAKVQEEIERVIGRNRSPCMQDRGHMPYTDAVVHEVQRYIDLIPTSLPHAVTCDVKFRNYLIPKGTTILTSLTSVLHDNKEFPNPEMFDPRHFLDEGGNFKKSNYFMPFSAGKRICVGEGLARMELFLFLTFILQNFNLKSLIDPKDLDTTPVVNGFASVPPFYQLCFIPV
compound,measurement,setting,value
Cc1ccc(/C=C/C(=O)Nc2ccc(S(=O)(=O)Nc3cc(C)nc(C)n3)cc2)cc1,EC50,[1],> 260 µM (inactive)
CC1(C)CC(=O)C2=C(C1)N=C1c3ccccc3C(=O)C1C2c1ccc(Cl)cc1 (stereo not drawn),EC50,Streptococcus,> 150 µM (not active)
same,EC50,[2],6.07 µM (active)
same,EC50,Streptokinase A,14.8 µM (active)
C=CCn1cc(/C=C/c2cc[n+](C)cc2)c2ccccc21,AC50,INS1,4.75 µM (active)
same,EC50,[3],> 60 µM (not active)
same,EC50,[4],323 nM (active)
COc1ncc2nc(-c3cccc(C#N)c3)c(=O)n(CCC#N)c2n1,AC50,Cytochrome P450 1A2,20 µM (inconclusive)
same,AC50,Cytochrome P450 2D6,15.8 µM (inconclusive)
C/C(=N\O)c1cccc[n+]1Cc1ccccc1,AC50,Cytochrome P450 2D6,3.98 µM (inconclusive)
same,AC50,Cytochrome P450 2C19,0.1 µM (inconclusive)
CN1CCN(c2ncncc2-c2cccnc2)CC1,AC50,Cytochrome P450 1A2,25.1 µM (inconclusive)
same,AC50,Cytochrome P450 2D6,2.51 µM (inconclusive)
same,AC50,Cytochrome P450 3A4,12.6 µM (inconclusive)
O=[N+]([O-])c1ccc(S(=O)(=O)Cc2ccccc2)c2nonc12,AC50,Cytochrome P450 2D6,6.31 µM (inconclusive)
Cc1noc(C)c1S(=O)(=O)N(CCc1ccccc1)Cc1ccccc1,EC50,Streptococcus,> 150 µM (not active)
same,EC50,[2],68.6 µM (active)
same,EC50,Streptokinase A,21.7 µM (active)
CCOC(=O)c1cnc(-c2ccccc2)nc1Oc1ccc(C)cc1,EC50,[1],> 260 µM (inactive)
CN1CCN(CC(=O)N2c3ccccc3Sc3cc4ccccc4cc32)CC1,AC50,Cytochrome P450 2D6,3.16 µM (inconclusive)
same,AC50,Cytochrome P450 3A4,3.98 µM (inconclusive)
COCCNc1ncnc2ccc(-c3cccc(OC)c3)cc12,AC50,Cytochrome P450 2D6,39.8 µM (inconclusive)
same,AC50,Cytochrome P450 2C19,2.51 µM (inconclusive)
CCCCCCSc1ccc([C@H]2N[C@@](C)(C(=O)OC)[C@H]3C(=O)N(CC)C(=O)[C@@H]23)cc1,AC50,[5],33.7 µM (active)
CCCc1cc2c(-c3ccccc3)cc(=O)oc2cc1OCc1ccc(C(=O)O)o1,EC50,Streptococcus,> 150 µM (not active)
same,EC50,[2],8.37 µM (active)
same,EC50,Streptokinase A,13.8 µM (active)
COC(=O)c1cc(S(=O)(=O)N2CCN(c3ccc([N+](=O)[O-])cc3)CC2)c[nH]1,EC50,[1],> 260 µM (inactive)
C[C@@H]1CC[C@H]2C(=O)N3[C@@H](CC[C@@H](C)[C@@H]3c3ccc(Br)cc3)C(=O)N2[C@H]1c1ccc(Br)cc1,AC50,[5],3.04 µM (active)
COC(=O)C1(Cc2ccccc2)C=C2C(=C(C)C(=O)C2C)CN1 (stereo not drawn),AC50,Cytochrome P450 1A2,10 µM (inconclusive)
same,AC50,Cytochrome P450 2D6,15.8 µM (inconclusive)
same,AC50,Cytochrome P450 2C19,39.8 µM (inconclusive)
same,AC50,Cytochrome P450 3A4,15.8 µM (inconclusive)
COc1ccc2[nH]cc(CCNc3nc(-c4ccccc4CN(C)C)nc4ccccc34)c2c1,AC50,Cytochrome P450 1A2,25.1 µM (inconclusive)
same,AC50,Cytochrome P450 2D6,31.6 µM (inconclusive)
same,AC50,Cytochrome P450 3A4,2 µM (inconclusive)
CC(OC(=O)/C=C/c1ccc2ccccc2n1)C(=O)NCc1ccccc1 (stereo not drawn),EC50,[1],13.3 µM (active)
O=C1/C(=C/c2ccncc2)Oc2cc(OS(=O)(=O)c3ccccc3)ccc21,AC50,[5],3.32 µM (active)
CC(C)C(=O)N1CCN(c2ccccc2NC(=O)c2cccc(Cl)c2)CC1,AC50,Cytochrome P450 1A2,20 µM (inconclusive)
same,AC50,Cytochrome P450 2D6,15.8 µM (inconclusive)
same,AC50,Cytochrome P450 3A4,12.6 µM (inconclusive)
CC(C)NC(=O)N1CC2(CCN(C(=O)c3ccco3)CC2)C1,AC50,Cytochrome P450 2D6,12.6 µM (inconclusive)
COc1cccc(-c2ccc3ncnc(NCCNC(C)=O)c3c2)c1,AC50,Cytochrome P450 2D6,39.8 µM (inconclusive)
CCOc1ccc(-n2cc(C(=O)N3CCC(C)CC3)c3cc(OC)c(OC)cc3c2=O)cc1,EC50,[1],> 260 µM (inactive)
Cc1ccc(Nc2cc(C)nn2-c2nc(C)cc(C)n2)cc1,EC50,Streptococcus,18.2 µM (active)
same,EC50,[2],6.89 µM (active)
same,EC50,Streptokinase A,> 150 µM (not active)
C=CCN1C(=O)NC(=O)/C(=C(/CC)Nc2ccc3c(c2)CCC3)C1=O,EC50,[1],> 260 µM (inactive)
O=C(CSc1nn(-c2ccc(F)cc2)c(=S)s1)N1CCN(C(=O)c2ccco2)CC1,EC50,[1],> 260 µM (inactive)
CC(C)N1CCN(Cc2ccc(OC3CCCC3)cc2)CC1CCO (stereo not drawn),AC50,[5],3.58 µM (active)
O=C(CSC1CC(=O)N(CC(c2ccccc2)c2ccccc2)C1=O)Nc1ccc(Cl)cc1 (stereo not drawn),AC50,Cytochrome P450 1A2,35.5 µM (inconclusive)
same,AC50,Cytochrome P450 2D6,2 µM (inconclusive)
COc1cccc(C2C(C(N)=O)=C(C)Nc3nc(-c4cccc(Cl)c4)nn32)c1 (stereo not drawn),EC50,[1],71.9 µM (active)
CC1(C)Cc2nc(NCCN3CCOCC3)c(C#N)cc2CO1,EC50,[1],> 260 µM (inactive)
Cc1cccc(NC(=O)c2[nH]cnc2C(=O)NC2CCN(C(=O)OC(C)(C)C)CC2)c1,AC50,[5],5.39 µM (active)
O=C(NCc1nnc(SCC(=O)N2CCOCC2)o1)c1c(F)cccc1F,EC50,Streptococcus,> 150 µM (not active)
same,EC50,[2],> 150 µM (not active)
same,EC50,Streptokinase A,> 150 µM (not active)
Cc1ccc(C)n1-c1ccc(C(=O)Nc2ccccc2)cc1,AC50,INS1,> 260 µM (inactive)
Cc1cccc(NC(=O)CSc2nc(O)c3c(C)cc(C)nc3n2)c1,AC50,Cytochrome P450 2D6,15.8 µM (inconclusive)
Cc1ccc(S(=O)(=O)N(C)C)cc1NC(=O)COC(=O)c1c(C)noc1C,EC50,[1],> 260 µM (inactive)
Nc1c(C(=O)OCc2ccccc2)c2nc3ccccc3nc2n1Cc1cccs1,EC50,Streptococcus,11.8 µM (active)
same,EC50,[2],10.9 µM (active)
same,EC50,Streptokinase A,18.5 µM (active)
Cc1ccc(C(=O)NC2CCCN(c3ccc(C(F)(F)F)cn3)C2)cn1 (stereo not drawn),EC50,[1],> 260 µM (inactive)
CCOC(=O)Nc1ccc(Cc2ccncc2)cc1,AC50,[5],25.3 µM (active)
COc1ccc(NC(=O)c2ccc(COc3ccccc3Br)o2)c(OC)c1,AC50,[5],2.2 µM (active)
COC(=O)c1ccc(N(CC(=O)NC2CCCCC2)C(=O)CNC(=O)c2ccco2)cc1,EC50,[1],> 260 µM (inactive)
Cc1ccc(NC(=O)C(C)Sc2nnc(C)n2C2CC2)cc1S(=O)(=O)N1CCOCC1 (stereo not drawn),AC50,INS1,> 260 µM (inconclusive)
CN(C)C=O.O=C(c1cc(-c2ccccc2Cl)nc2ccccc12)N1CCN(c2ccccn2)CC1,AC50,INS1,3.9 µM (active)
CCN(CC)c1nc(Nc2ccc([N+](=O)[O-])cc2)nc(N(CC)CC)n1,EC50,Streptococcus,15.7 µM (active)
same,EC50,[2],6.64 µM (active)
same,EC50,Streptokinase A,> 150 µM (not active)
COc1cc(/C=N/N2C(=O)c3ccccc3NC2(C)c2cccc([N+](=O)[O-])c2)cc(Br)c1O (stereo not drawn),EC50,[1],34.1 µM (active)
O=C(Nc1ccccc1)N[C@H]1C[C@H](C(=O)O)Nc2cc(Cl)cc(Cl)c21,AC50,Cytochrome P450 1A2,39.8 µM (inconclusive)
same,AC50,Cytochrome P450 2C19,25.1 µM (inconclusive)
same,AC50,Cytochrome P450 3A4,25.1 µM (inconclusive)
COc1ccc(S(=O)(=O)N/N=C(/C)c2cccc(NC(=O)c3ccccc3Cl)c2)cc1,AC50,Cytochrome P450 1A2,14.1 µM (inconclusive)
same,AC50,Cytochrome P450 2D6,28.2 µM (inconclusive)
same,AC50,Cytochrome P450 2C19,0.398 µM (inconclusive)
N[C@@H](CSS(=O)(=O)O)C(=O)O,AC50,Cytochrome P450 1A2,39.8 µM (inconclusive)
same,AC50,Cytochrome P450 2C19,7.94 µM (inconclusive)
CCN(CC)CCNC(=O)c1cc(S(C)(=O)=O)ccc1OC [TIAPRIDE],AC50,Cytochrome P450 2D6,7.94 µM (inconclusive) and 31.6 µM (inconclusive)
